Reference: patent US20050070527A1, “Quinoxaline compounds” (priority 2003, published 2005)
Where two headings read alike, the source gives them in different places. Each block holds one compound with its values, some of them ahead of it.

Legend:
[1] = target: T1, human histamine H4 receptor (Homo sapiens, UniProt Q9H3N8); experiment: Binding assay on recombinant human histamine H4 receptor (3H-histamine displacement)
T1 construct: expressed in transfected cells; host or cells: SK-N-MC cells or COS7 cells, transiently transfected; membrane preparation
Experimental: Binding Assay on Recombinant Human Histamine H4 Receptor
SK-N-MC cells or COS7 cells were transiently transfected with pH4R and grown in 150 cm^2 tissue culture dishes. Cells were washed with saline solution, scraped with a cell scraper and collected by centrifugation (1000 rpm, 5 min). Cell membranes were prepared by homogenization of the cell pellet in 20 mM Tris-HCl with a polytron tissue homogenizer for 10 s at high speed. Homogenate was centrifuged at 1000 rpm for 5 min at 4° C. The supernatant was then collected and centrifuged at 20,000× g for 25 min at 4° C. The final pellet was resuspended in 50 mM Tris-HCl. Cell membranes were incubated with ^3H-histamine (5-70 nM) in the presence or absence of excess histamine (10000 nM). Incubation occurred at room temperature for 45 min. Membranes were harvested by rapid filtration over Whatman GF/C filters and washed 4 times with ice-cold 50 mM Tris HCl. Filters were then dried, mixed with scintillant and counted for radioactivity. SK-N-MC or COS7 cells expressing human histamine H4 receptor were used to measure the affinity of binding of other compounds and their ability to displace ^3H-ligand binding by incubating the above-described reaction in the presence of various concentrations of inhibitor or compound to be tested.

Mast cells = experiment: Mast cell chemotaxis assay (histamine-induced, transwell); assay type: cell-based; conditions: 10 μM histamine, 3 h at 37° C.
Experimental: Mast Cell Chemotaxis Assay
In addition, it is known that mast cell numbers increase in a number of inflammatory conditions. Some of this is due to chemotaxis of mast cells to the sites of inflammation. This chemotaxis to specific agents can be mimicked in vitro. Transwells (Costar, Cambridge, Mass.) of a pore size 8 μm were coated with 100 μL of 100 ng/mL human fibronectin (Sigma) for 2 h at room temperature. After removal of the fibronectin, 600 μL of RPMI with 5% BSA, in the presence of 10 μM histamine, was added to the bottom chamber. To test the various histamine receptor (HR) antagonists, 10 μM and/or 1 μM solutions of the test compounds were added to the top and bottom chambers. Mast cells (2×10^5/well) were added to the top chamber. The plates were incubated for 3 h at 37° C. Transwells were removed and the cells in the bottom chamber were counted for sixty seconds using a flow cytometer.

human eosinophils [2] = conditions: cited from earlier work
human eosinophils [3] = experiment: Inhibition of eosinophil shape change (gated autofluorescence forward scatter assay); conditions: for effect on histamine-induced shape change: antagonist, human eosinophils; for Fold Change (eosinophil shape change): 10 μM antagonist
[4] = Table 1, competition with 3H-histamine, Cheng-Prusoff, KD 5 nM, ligand 5 nM, read-out: Ki

Compound: CN1CCN(c2nc3cc(F)ccc3[nH]c2=O)CC1 [Example 21, 6-Fluoro-3-(4-methyl-piperazin-1-yl)-1H-quinoxalin-2-one]
Ki ([1]; read-out: Ki): 39 nM

Ki [1, 4]: 852 nM
Compound: Cc1cccc2nc(N3CCN(CCO)CC3)c(=O)[nH]c12 [Example 7, 3-[4-(2-Hydroxy-ethyl)-piperazin-1-yl]-8-methyl-1H-quinoxalin-2-one]

Compound: Cc1cccc2nc(N3CCNCC3)c(=O)[nH]c12 [Example 2, 8-Methyl-3-piperazin-1-yl-1H-quinoxalin-2-one]
Ki ([1]; read-out: Ki): 16 nM
% Inh (Mast cells; HR antagonist 1 μM): 50%

Compound: Cc1cccc2nc(N3CCN(C)CC3)c(=O)[nH]c12 [Example 1, 8-Methyl-3-(4-methyl-piperazin-1-yl)-1H-quinoxalin-2-one]
Ki ([1]; read-out: Ki): 6 nM
% Inh (Mast cells; HR antagonist 1 μM): 76%

Ki [1, 4]: 12 nM
Ki ([1]; repeated in the mast cell chemotaxis table, read-out: Binding Assay Ki): 12 nM
Compound: 6-Chloro-7-fluoro-3-(4-methyl-piperazin-1-yl)-1H-quinoxalin-2-one; and 7-Chloro-6-fluoro-3-(4-methyl-piperazin-1-yl)-1H-quinoxalin-2-one [Example 25]
% Inh (Mast cells; HR antagonist 1 μM): 81%
% Inh (Mast cells; HR antagonist 10 μM): 79%

Compound: S=C(NC1CCCCC1)N1CCC(c2cnc[nH]2)CC1 [thioperamide]
blockade of calcium mobilization responses (human eosinophils [2]; responses to histamine and R-α-methylhistamine): blocked

Compound: O=c1[nH]c2c(F)c(F)ccc2nc1N1CCNCC1 [Example 4, 7,8-Difluoro-3-piperazin-1-yl-1H-quinoxalin-2-one]
Ki [1, 4]: 430 nM

Compound: NCCc1c[nH]cn1 [histamine]
activation of calcium mobilization (human eosinophils [2]): activate calcium mobilization
shape change in eosinophils (agonist effect) (human eosinophils [3]; histamine alone, 0.01-10 μM): induces a dose-dependent shape change

Ki [1, 4]: 640 nM
Compound: O=c1[nH]c2c([N+](=O)[O-])cccc2nc1N1CCNCC1 [Example 3, 8-Nitro-3-piperazin-1-yl-1H-quinoxalin-2-one]

Compound: 6-Chloro-3-(4-methyl-piperazin-1-yl)-1H-quinoxalin-2-one; and 7-Chloro-3-(4-methyl-piperazin-1-yl)-1H-quinoxalin-2-one [Example 8]
Ki ([1]; read-out: Ki): 21 nM

Ki [1, 4]: 743 nM
Compound: 3-(3-Methyl-piperazin-1-yl)-6-trifluoromethyl-1H-quinoxalin-2-one; and 3-(3-Methyl-piperazin-1-yl)-7-trifluoromethyl-1H-qui noxalin-2-one [Example 28]

Compound: O=c1[nH]c2cc(Cl)c(Cl)cc2nc1N1CCNCC1 [Example 15, 6,7-Dichloro-3-piperazin-1-yl-1H-quinoxalin-2-one]
Ki ([1]; read-out: Ki): 56 nM

Compound: CN(C)CCOC(c1ccccc1)c1ccccc1 [diphenhydramine]
effect on histamine-induced shape change (human eosinophils [3]): did not alter
Fold Change (eosinophil shape change) (human eosinophils [3]; histamine 0 μM): 1.00
Fold Change (eosinophil shape change) (human eosinophils [3]; histamine 0.01 μM): 1.03
Fold Change (eosinophil shape change) (human eosinophils [3]; histamine 0.1 μM): 1.18
Fold Change (eosinophil shape change) (human eosinophils [3]; histamine 1 μM): 1.50
Fold Change (eosinophil shape change) (human eosinophils [3]; histamine 10 μM): 1.63

Compound: 6-Chloro-3-(3-methyl-piperazin-1-yl)-1H-quinoxalin-2-one; and 7-Chloro-3-(3-methyl-piperazin-1-yl)-1H-quinoxalin-2-one [Example 27]
Ki ([1]; read-out: Ki): 467 nM

IC50 (human eosinophils [3]; Homo sapiens, Eosinophil, read-out: IC50, inhibition of histamine-induced eosinophil shape change): 270 nM
Compound: CN1CCN(C(=O)c2cc3cc(Cl)ccc3[nH]2)CC1 [(5-chloro-1H-indol-2-yl)-(4-methyl-piperazin-1-yl)-methanone]

Ki [1, 4]: 30 nM
Compound: CN1CCN(c2nc3ccc(F)c(F)c3[nH]c2=O)CC1 [Example 22, 7,8-Difluoro-3-(4-methyl-piperazin-1-yl)-1H-quinoxalin-2-one]

Compound: CNC(=C[N+](=O)[O-])NCCSCc1ccc(CN(C)C)o1 [ranatidine]
effect on histamine-induced shape change (human eosinophils [3]): did not alter
Fold Change (eosinophil shape change) (human eosinophils [3]; histamine 0 μM): 1.00
Fold Change (eosinophil shape change) (human eosinophils [3]; histamine 0.01 μM): 1.04
Fold Change (eosinophil shape change) (human eosinophils [3]; histamine 0.1 μM): 1.21
Fold Change (eosinophil shape change) (human eosinophils [3]; histamine 1 μM): 1.49
Fold Change (eosinophil shape change) (human eosinophils [3]; histamine 10 μM): 1.64

Ki [1, 4]: 32 nM
Compound: CN1CCN(c2nc3cc(Cl)c(Cl)cc3[nH]c2=O)CC1 [Example 14, 6,7-Dichloro-3-(4-methyl-piperazin-1-yl)-1H-quinoxalin-2-one]
% Inh (Mast cells; HR antagonist 1 μM): 71%
% Inh (Mast cells; HR antagonist 10 μM): 80%

Compound: CN1CCN(c2nc3cc(Cl)ccc3[nH]c2=O)CC1 [Example 9, 6-Chloro-3-(4-methyl-piperazin-1-yl)-1H-quinoxalin-2-one]
Ki ([1]; read-out: Ki): 84 nM

Compound: 7-Chloro-3-piperazin-1-yl-1H-quinoxalin-2-one; and 6-Chloro-3-piperazin-1-yl-1H-quinoxalin-2-one [Example 26]
Ki ([1]; read-out: Ki): 152 nM

Ki [1, 4]: 1610 nM
Compound: CN1CCCN(c2nc3cc(Cl)c(Cl)cc3[nH]c2=O)CC1 [Example 16, 6,7-Dichloro-3-(4-methyl-[1,4]diazepan-1-yl)-1H-quinoxalin-2-one]

Ki [1, 4]: 93 nM
Compound: Cc1cc2nc(N3CCN(C)CC3)c(=O)[nH]c2cc1Cl [Example 19, 7-Chloro-6-methyl-3-(4-methyl-piperazin-1-yl)-1H-quinoxalin-2-one]

Compound: C[C@@H](N)Cc1c[nH]cn1 [R-α-methylhistamine]
activation of calcium mobilization (human eosinophils [2]): activate calcium mobilization
potency relative to histamine in calcium mobilization (human eosinophils [2]): significantly less potent than histamine

Ki [1, 4]: 24 nM
Compound: CN1CCN(c2nc3cc(C(F)(F)F)ccc3[nH]c2=O)CC1 [Example 12, 3-(4-Methyl-piperazin-1-yl)-6-trifluoromethyl-1H-quinoxalin-2-one]
% Inh (Mast cells; HR antagonist 1 μM): 99%

Ki [1, 4]: 83 nM
Compound: Cc1cc2[nH]c(=O)c(N3CCN(C)CC3)nc2cc1Cl [Example 20, 6-Chloro-7-methyl-3-(4-methyl-piperazin-1-yl)-1H-quinoxalin-2-one]

Ki [1, 4]: 467 nM
Compound: 3-piperazin-1-yl-6-trifluoromethyl-1H-quinoxalin-2-one; and 3-piperazin-1-yl-7-trifluoromethyl-1H-quinoxalin-2-one [Example 24]

Ki [1, 4]: 112 nM
Compound: 7-Chloro-6-methyl-3-(4-methyl-piperazin-1-yl)-1H-quinoxalin-2-one; and 6-Chloro-7-methyl-3-(4-methyl-piperazin-1-yl)-1H-quinoxalin-2-one [Example 18]

Compound: CN1CCN(c2nc3ccc(Cl)cc3[nH]c2=O)CC1 [Example 10, 7-Chloro-3-(4-methyl-piperazin-1-yl)-1H-quinoxalin-2-one]
Ki ([1]; read-out: Ki): 31 nM

Ki [1, 4]: 74 nM
Compound: CN1CCN(c2nc3cc(F)c(F)cc3[nH]c2=O)CC1 [Example 17, 6,7-Difluoro-3-(4-methyl-piperazin-1-yl)-1H-quinoxalin-2-one]

Ki [1, 4]: 19 nM
Compound: CN1CCN(c2nc3ccc(C(F)(F)F)cc3[nH]c2=O)CC1 [Example 13, 3-(4-Methyl-piperazin-1-yl)-7-trifluoromethyl-1H-quinoxalin-2-one]

Ki [1, 4]: 166 nM
Compound: CN1CCN(c2nc3cc(C(F)(F)F)cc(Cl)c3[nH]c2=O)CC1 [Example 23, 8-Chloro-3-(4-methyl-piperazin-1-yl)-6-trifluoromethyl-1H-quinoxalin-2-one]

Compound: CC1CN(c2nc3ccccc3[nH]c2=O)CCN1 (stereo not drawn) [Example 6, 3-(3-Methyl-piperazin-1-yl)-1H-quinoxalin-2-one]
Ki [1, 4]: 681 nM

Compound: Cc1cccc2nc(N3CCNC(C)C3)c(=O)[nH]c12 (stereo not drawn) [Example 5, 8-Methyl-3-(3-methyl-piperazin-1-yl)-1H-quinoxalin-2-one]
Ki ([1]; read-out: Ki): 40 nM

Ki [1, 4]: 11 nM
Compound: 3-(4-Methyl-piperazin-1-yl)-6-trifluoromethyl-1H-qui noxalin-2-one; and 3-(4-Methyl-piperazin-1-yl)-7-trifluoromethyl-1H-quinoxalin-2-one [Example 11]
